This passage reports IC50 results from US8450350B2, “Triazoles as inhibitors of fatty acid synthase” (Infinity Pharmaceuticals, Inc., priority 2010, dated 2013).

One assay deals with T1, human FASN (Homo sapiens, UniProt P49327).
T1 construct: purified from SKBR3 cells using procedures modified from those in Jayakumar et al; endogenous in cells; host or cells: SKBR3 cells (ATCC); endogenous FASN purified in house by ammonium sulfate precipitation and mono Q chromatography
T1 sequence (P49327 whole entry): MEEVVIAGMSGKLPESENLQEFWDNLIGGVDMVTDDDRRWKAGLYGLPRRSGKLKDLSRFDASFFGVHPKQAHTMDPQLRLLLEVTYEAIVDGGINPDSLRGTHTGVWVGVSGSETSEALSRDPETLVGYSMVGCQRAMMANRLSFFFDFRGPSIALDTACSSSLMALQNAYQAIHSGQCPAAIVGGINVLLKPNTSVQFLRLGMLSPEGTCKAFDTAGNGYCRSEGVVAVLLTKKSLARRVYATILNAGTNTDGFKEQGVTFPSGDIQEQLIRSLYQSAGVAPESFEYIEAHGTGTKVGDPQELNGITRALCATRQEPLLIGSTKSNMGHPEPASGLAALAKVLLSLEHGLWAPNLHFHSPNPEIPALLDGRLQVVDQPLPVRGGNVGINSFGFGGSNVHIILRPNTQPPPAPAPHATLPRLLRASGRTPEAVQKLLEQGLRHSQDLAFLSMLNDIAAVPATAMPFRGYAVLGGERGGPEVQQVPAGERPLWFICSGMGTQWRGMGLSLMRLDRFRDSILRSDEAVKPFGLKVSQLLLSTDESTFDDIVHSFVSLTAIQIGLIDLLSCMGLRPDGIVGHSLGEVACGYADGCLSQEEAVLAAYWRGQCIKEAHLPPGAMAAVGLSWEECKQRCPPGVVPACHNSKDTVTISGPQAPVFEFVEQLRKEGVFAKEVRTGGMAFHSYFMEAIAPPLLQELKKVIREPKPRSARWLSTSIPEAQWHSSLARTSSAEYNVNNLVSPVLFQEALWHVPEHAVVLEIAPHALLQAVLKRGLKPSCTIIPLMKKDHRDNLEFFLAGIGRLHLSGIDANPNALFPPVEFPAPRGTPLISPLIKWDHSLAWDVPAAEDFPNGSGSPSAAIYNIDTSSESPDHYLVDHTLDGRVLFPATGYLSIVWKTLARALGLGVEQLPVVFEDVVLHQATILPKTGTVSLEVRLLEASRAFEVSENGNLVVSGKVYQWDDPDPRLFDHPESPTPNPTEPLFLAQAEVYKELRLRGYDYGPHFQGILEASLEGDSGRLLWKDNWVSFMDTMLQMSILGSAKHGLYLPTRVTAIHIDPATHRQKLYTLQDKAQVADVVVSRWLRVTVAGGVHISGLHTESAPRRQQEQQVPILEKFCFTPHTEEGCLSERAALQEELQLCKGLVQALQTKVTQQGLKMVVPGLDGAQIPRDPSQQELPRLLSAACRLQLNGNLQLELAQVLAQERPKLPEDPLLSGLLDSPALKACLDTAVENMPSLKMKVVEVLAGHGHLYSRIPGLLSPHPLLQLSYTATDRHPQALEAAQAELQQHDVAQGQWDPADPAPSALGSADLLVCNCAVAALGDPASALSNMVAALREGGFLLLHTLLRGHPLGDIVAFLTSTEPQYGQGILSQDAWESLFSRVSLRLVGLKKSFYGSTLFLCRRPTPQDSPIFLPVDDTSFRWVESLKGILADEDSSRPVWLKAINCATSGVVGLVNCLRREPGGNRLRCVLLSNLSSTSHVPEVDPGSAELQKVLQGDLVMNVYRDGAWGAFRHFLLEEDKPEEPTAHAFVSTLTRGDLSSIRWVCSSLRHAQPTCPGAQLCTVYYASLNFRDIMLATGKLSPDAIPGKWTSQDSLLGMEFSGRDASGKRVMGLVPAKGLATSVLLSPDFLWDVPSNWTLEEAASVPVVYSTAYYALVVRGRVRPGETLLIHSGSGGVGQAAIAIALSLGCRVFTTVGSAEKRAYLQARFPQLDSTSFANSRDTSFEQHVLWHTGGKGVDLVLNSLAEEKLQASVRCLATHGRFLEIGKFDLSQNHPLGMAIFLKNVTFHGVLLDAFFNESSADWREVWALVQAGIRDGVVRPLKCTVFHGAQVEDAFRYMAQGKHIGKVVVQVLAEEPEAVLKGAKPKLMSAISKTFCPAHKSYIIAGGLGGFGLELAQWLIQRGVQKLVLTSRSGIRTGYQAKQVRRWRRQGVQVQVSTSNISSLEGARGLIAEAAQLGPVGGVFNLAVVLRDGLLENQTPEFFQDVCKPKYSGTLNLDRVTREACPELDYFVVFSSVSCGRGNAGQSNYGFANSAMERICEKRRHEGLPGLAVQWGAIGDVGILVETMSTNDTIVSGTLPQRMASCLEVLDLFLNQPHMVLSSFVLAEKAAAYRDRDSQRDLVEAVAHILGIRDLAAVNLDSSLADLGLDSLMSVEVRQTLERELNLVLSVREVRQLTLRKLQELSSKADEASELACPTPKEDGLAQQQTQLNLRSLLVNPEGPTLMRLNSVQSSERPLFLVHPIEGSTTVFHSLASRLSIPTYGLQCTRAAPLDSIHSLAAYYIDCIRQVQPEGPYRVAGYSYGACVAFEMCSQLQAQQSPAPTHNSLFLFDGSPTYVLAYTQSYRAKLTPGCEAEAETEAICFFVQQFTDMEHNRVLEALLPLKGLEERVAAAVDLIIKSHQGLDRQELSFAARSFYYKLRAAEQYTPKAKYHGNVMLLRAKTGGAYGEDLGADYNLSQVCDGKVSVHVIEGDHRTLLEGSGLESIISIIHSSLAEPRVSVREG
Description: FASN Scintillation Proximity Flashplate assay. The format is biochemical. To be noted: IC50 class, FASN Scintillation Proximity Flashplate Assay (symbols with asterisk); human FASN purified from SKBR3 cells. As for the experimental part:
Human FASN protein (SEQ ID NO 1) was purified from SKBR3 cells using procedures modified from those in Jayakumar et al., PNAS (1995) 92:8695-8699. SKBR3 cells were obtained from ATCC and grown in DMEM high glucose medium supplemented with 10% FBS, 1 μg/mL bovine pancreas insulin, 100 U/mL penicillin and 100 μg/mL streptomycin. The confluent cells were trypsinized and washed three times with PBS buffer before frozen in liquid N2 and stored at −80° C. Frozen cells were thawed on ice and re-suspended in lysis buffer (25 mM Tris-HCl, pH 7.0, 15 mM NaCl, 1 mM EDTA, and 1 mM DTT) with protease inhibitors. The cells were lysed by sonication, and the cell debris was removed by centrifugation at 20,000 rpm for 30 min. […] Each fraction was analyzed by SDS-PAGE and FASN NADPH consumption assay. […]
Acetyl-coenzyme A, malonyl-coenzyme A, NADPH, bovine gamma globulin, and orlistat were purchased from Sigma (St. Louis, Mo.). […] The plates were read in a Wallac 1450 Microbeta Plus liquid scintillation counter (Perkin Elmer, Waltham, Mass.), and counts per minute (CPM) were collected over 2 min. Each inhibitor well CPM was compared to the maximum FASN enzyme activity (Max) CPM and the background (Min) CPM, as measured by omission of FASN enzyme in the background well. % Inhibition values were calculated, and curves were fitted by a four-parameter logistic function to yield IC50 values: […]
In general terms: Scintillation proximity formats need no separation of bound from free tracer.
With `CC(C)N(C(=O)n1nnc(-c2c(F)cccc2F)c1C#N)c1cccc(C(=O)O)c1` [3-(5-cyano-4-(2,6-difluorophenyl)-N-isopropyl-1H-1,2,3-triazole-1-carboxamido)benzoic acid], the IC50 (in general, the concentration that gives 50% inhibition) is under 200 nM.
Same read-out and setting: for `CCN(C(=O)n1nnc(-c2ccccc2CCc2ccccc2)c1C#N)c1ccccc1` the value was under 200 nM.

For a further assay, the target named is T1, human FASN. The experiment in a line: FASN NADPH consumption assay. The format is biochemical. To be noted: IC50 class, FASN NADPH Consumption Assay (symbols without asterisk); human FASN purified from SKBR3 cells. How it is done: Human FASN protein (SEQ ID NO 1) was purified from SKBR3 cells using procedures modified from those in Jayakumar et al., PNAS (1995) 92:8695-8699. SKBR3 cells were obtained from ATCC and grown in DMEM high glucose medium supplemented with 10% FBS, 1 μg/mL bovine pancreas insulin, 100 U/mL penicillin and 100 μg/mL streptomycin. The confluent cells were trypsinized and washed three times with PBS buffer before frozen in liquid N2 and stored at −80° C. Frozen cells were thawed on ice and re-suspended in lysis buffer (25 mM Tris-HCl, pH 7.0, 15 mM NaCl, 1 mM EDTA, and 1 mM DTT) with protease inhibitors. The cells were lysed by sonication, and the cell debris was removed by centrifugation at 20,000 rpm for 30 min. To the supernatant, neutralized saturated ammonium sulfate solution was added to a final concentration of 35%. The solution was left on ice for 1 hr, and the precipitated proteins were harvested by centrifugation at 20,000 rpm for 30 min. The proteins were re-dissolved in lysis buffer without NaCl and loaded on a mono Q column. Bound proteins were eluted with a linear gradient of NaCl in lysis buffer. Each fraction was analyzed by SDS-PAGE and FASN NADPH consumption assay. The fractions containing FASN were pooled and concentrated to 2-3 mg/mL. Glycerol was added to 20%, and the protein was frozen in liquid N2 and stored at −80° C.
All chemicals were purchased from Sigma (St. Louis, Mo.). The procedures of NADPH consumption assay were similar to those described in Cox et al., PNAS (1983) 80:4233-4237. On a 96-well polypropylene microplate, dilution series (typical concentrations 60 nM-1.0 mM) of inhibitor compounds were prepared in DMSO, of which 4.0 μL each was transferred to a black polystyrene assay microplate and mixed with 36 μL FASN assay buffer (50 mM potassium phosphate, pH 7.0, 1.0 mM EDTA, 0.01% NP-40) plus 5.0 mM fresh DTT. FASN protein (40 μL 150 nM FASN) was added per well, and the microplate was incubated at 37° C. for 30 min. Enzyme activity measurement was initiated by addition of 20 μL 5× substrate mixture to final concentrations of 60 nM FASN, 2.4 nM-40 μM compound, 0.2 mM NADPH, 50 μM butyryl-CoA, 0.5 mM malonyl-CoA in 100 μL assay buffer plus 5.0 mM DTT and 4.0% DMSO. NADPH consumption was monitored kinetically by fluorescence (λEX=340 nm, λEm=460 nm) on an EnVision 2100 multilabel plate reader (Perkin Elmer, Waltham, Mass.). FASN enzyme activity (slope) in the presence of 4% DMSO was used as maximum control, whereas background (minimum control) was measured by omission of malonyl-CoA in the substrate mixture. Inhibition curves were fitted by a logistic function to yield IC50 values: […]
Consider `CCN(C(=O)n1nncc1-c1ccccc1Cl)c1ccccc1F`, for which the IC50 is over 1000 nM.
Compound `CCN(C(=O)n1nnc(-c2c(Cl)cccc2Cl)c1C#N)c1ccccc1` showed a concentration for half-maximal inhibition (IC50) of under 200 nM.
On the same count and under the same terms, the same measure for `CCN(C(=O)n1nnc2ncccc21)c1ccccc1`: 500 to 1000 nM; for `CCN(C(=O)n1nnc(-c2c(F)cccc2Cl)c1C#N)c1ccccc1`: under 200 nM.
Same read-out and setting: the same measure for `O=C(N1CCCC2CCCCC21)n1nnc2ccccc21` (stereo not shown): over 1000 nM; for `O=C(N1CCCC2CCCCC21)n1nnc2ncccc21` (stereo not shown): over 1000 nM; for `C[C@@H](NC(=O)c1ccccc1-c1nnn(C(=O)N2CCCC3CCCCC32)c1C#N)c1ccccc1` (stereo partly shown): 200 to 500 nM.
Still for that read-out and setting: for `N#Cc1c(-c2ccccc2CCc2ccccc2)nnn1C(=O)N1CCCC2CCCCC21` (stereo not shown) the value was under 200 nM.
The compound `N#Cc1c(-c2c(F)cccc2F)nnn1C(=O)N1CCCC2CCCCC21` (stereo not shown) yielded an IC50 of 200 to 500 nM.
`CCN(C(=O)n1cc(-c2ccccc2Cl)nn1)c1ccccc1` displayed an IC50 of 500 to 1000 nM.
Compound `CCOC(=O)c1c(-c2ccccc2Oc2ccccc2)nnn1C(=O)N(CC)c1ccccc1` yielded an IC50 of 500 to 1000 nM.
The compound `CCN(C(=O)n1nncc1-c1ccccc1Cl)c1ccccc1` yielded an IC50 of over 1000 nM.
Compound `CCN(C(=O)n1nnc(-c2ccccc2Oc2ccccc2)c1C#N)c1ccccc1` had a concentration for half-maximal inhibition (IC50) of under 200 nM.
On the same count and under the same terms, for `C[C@H](NC(=O)c1ccccc1-c1nnn(C(=O)N2CCCC3CCCCC32)c1C#N)c1ccccc1` (stereo partly shown) the value was under 200 nM.
On the same count and under the same terms, for `N#Cc1c(-c2c(Cl)cccc2Cl)nnn1C(=O)N1CCCC2CCCCC21` (stereo not shown) the value was 200 to 500 nM; for `CCN(C(=O)n1nnc(-c2c(F)cccc2F)c1C#N)c1ccccc1`, under 200 nM.
The same measure, in the same setting: the same measure for `CCN(C(=O)n1nnc(C2CCCCC2)c1C#N)c1ccccc1`: 200 to 500 nM; for `C[C@H]1[C@H](NC(=O)c2ccccc2-c2nnn(C(=O)N3CCCC4CCCCC43)c2C#N)C[C@H]2C[C@@H]1C2(C)C` (stereo partly shown): 200 to 500 nM.
`CCN(C(=O)n1nnc(-c2c(F)cccc2Cl)c1C#N)c1ccccc1F` registered an IC50 of under 200 nM.
On the same count and under the same terms, the same measure for `C[C@@H]1[C@@H](NC(=O)c2ccccc2-c2nnn(C(=O)N3CCCC4CCCCC43)c2C#N)C[C@@H]2C[C@H]1C2(C)C` (stereo partly shown): 500 to 1000 nM.
On the same count and under the same terms, for `CCN(C(=O)n1cc(-c2ccccc2)nn1)C1CCCCC1` the value was over 1000 nM.
Same read-out and setting: the same measure for `CCOC(=O)c1c(-c2ccccc2Oc2ccccc2)nnn1C(=O)N1CCCC2CCCCC21` (stereo not shown) [ethyl 1-(decahydroquinoline-1-carbonyl)-4-(2-phenoxyphenyl)-1H-1,2,3-triazole-5-carboxylate]: 500 to 1000 nM.
The compound `C[C@@H]1[C@@H](NC(=O)c2c(-c3ccccc3Oc3ccccc3)nnn2C(=O)N2CCCC3CCCCC32)C[C@@H]2C[C@H]1C2(C)C` (stereo partly shown) came in with a 50% inhibitory concentration (IC50) of over 1000 nM.
In turn, `CCN(C(=O)n1cc(-c2ccccc2Cl)nn1)c1ccccc1F` gave an IC50 of over 1000 nM.
Same read-out and setting: for `C[C@H]1[C@H](NC(=O)c2c(-c3ccccc3Oc3ccccc3)nnn2C(=O)N2CCCC3CCCCC32)C[C@H]2C[C@@H]1C2(C)C` (stereo partly shown) the value was over 1000 nM; for `CCOC(=O)c1c(C2CC3C=CC2C3)nnn1C(=O)N1CCCC2CCCCC21` (stereo not shown), over 1000 nM; for `CC(=O)N1CCC(N(Cc2ccccc2)C(=O)n2nnc(-c3ccccc3Oc3ccccc3)c2C#N)CC1`, over 1000 nM.
Same read-out and setting: the same measure for `COC(=O)C1CCc2ccccc2N1C(=O)n1nnc(-c2ccccc2Oc2ccccc2)c1C#N` (stereo not shown): 500 to 1000 nM; for `CC(C)(C)OC(=O)N1CCC(N(Cc2ccccc2)C(=O)n2nnc(-c3ccccc3Oc3ccccc3)c2C#N)CC1`: over 1000 nM.
On the same count and under the same terms, for `CCN(C(=O)n1nnc2ccccc21)c1ccccc1F` the value was 500 to 1000 nM; for `CCN(C(=O)n1nnc2ccccc21)c1ccc(C(=O)O)cc1`, over 1000 nM; for `CCN(C(=O)n1nncc1-c1ccccc1)C1CCCCC1`, over 1000 nM.
